pKi: −log10 of the molar value. Like-named read-outs stand apart in the source and are kept apart here.
Legend:
[1] = test system: (S)-adenosyl-L-methionine: Δ^24-sterol methyl transferase (SMT); test: Effect of substrate and transition state analog inhibitors on soluble SMT enzyme from 4-day seedlings; type: biochemical, Zea mays (corn); details: for pKi: soluble SMT, 4-day seedlings, NA = no inhibition
[2] = molecular target: T1, yeast SMT enzyme (Saccharomyces cerevisiae, UniProt P25087); test: Substrate preference / binding of yeast SMT (ERG6 product); type: biochemical
T1 construct: made in house; host or cells: E. coli, pET23a(+)
T1 sequence (P25087 1-383): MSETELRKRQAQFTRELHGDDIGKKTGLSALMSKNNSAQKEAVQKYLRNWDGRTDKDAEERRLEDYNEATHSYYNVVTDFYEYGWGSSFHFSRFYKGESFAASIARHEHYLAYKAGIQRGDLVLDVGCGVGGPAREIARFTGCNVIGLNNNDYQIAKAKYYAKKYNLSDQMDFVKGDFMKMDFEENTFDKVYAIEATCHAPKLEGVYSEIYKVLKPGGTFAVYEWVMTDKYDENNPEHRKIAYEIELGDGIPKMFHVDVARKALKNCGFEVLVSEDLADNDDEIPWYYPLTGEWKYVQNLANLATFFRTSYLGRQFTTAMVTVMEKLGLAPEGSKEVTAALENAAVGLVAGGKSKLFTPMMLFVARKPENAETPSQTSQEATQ
Text: The cloned ERG6 gene was expressed in E. coli (Venkatramesh et al., 1996).

[3] = test system: (S)-adenosyl-L-methionine: Δ^24-sterol methyl transferase (SMT); test: Sterol specificity (substrate methylation) of SMT enzyme from 4-day corn seedlings; type: biochemical, Zea mays (corn); details: for % Activity, relative to cycloartenol methylation: soluble SMT; for Enzyme Activity: soluble SMT from corn seedlings, BG = background
Experimental: The sterol specificity of the microsome-bound and soluble SMT enzyme from 4-day corn seedlings was determined in order to elucidate the enzymatic basis for the plant sterols identified in Example 1.

[4] = test system: 3-hydroxy-3-methylglutaryl-coenzyme A reductase (HMGR); test: Microsomal HMGR activity during seedling development; type: biochemical, corn; design: dose or concentration left out as unconfirmed
[5] = molecular target: T2, Arabidopsis SMT (Arabidopsis thaliana, UniProt Q39227); test: Sterol transformation by recombinant Arabidopsis SMT expressed in E. coli; type: biochemical; details: recombinant fusion protein
T2 construct: The full-length ORF containing a Nde 1 site at the start; His-tag; made in house; host or cells: E. coli, pET23a(+)
T2 sequence (Q39227 1-361): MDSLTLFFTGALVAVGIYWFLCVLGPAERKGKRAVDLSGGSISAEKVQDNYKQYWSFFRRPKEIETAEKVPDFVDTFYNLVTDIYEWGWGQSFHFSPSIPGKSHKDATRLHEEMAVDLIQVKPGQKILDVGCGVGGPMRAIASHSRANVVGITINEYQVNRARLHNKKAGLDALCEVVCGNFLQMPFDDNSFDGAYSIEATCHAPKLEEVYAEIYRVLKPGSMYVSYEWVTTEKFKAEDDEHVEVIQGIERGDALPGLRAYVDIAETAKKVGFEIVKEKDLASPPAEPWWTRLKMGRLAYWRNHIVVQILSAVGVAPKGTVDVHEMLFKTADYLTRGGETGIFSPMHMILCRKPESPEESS
Text: The SMT gene from Arabidopsis was cloned and sequenced (FIG. 6; SEQ ID NO:3). This gene containing a His-tag was overexpressed in E. coli (Tong et al., 1997). Arabidopsis SMT was partially purified and characterized in stereochemical detail.
The Arabidopsis SMT gene was amplified by PCR from a cDNA library. The primers used were designed from the full-length cDNA sequence retrieved from the GeneBank (Accession number X89867). The amplified product was the full-length Arabidopsis SMT gene which was sub-cloned into a T/A cloning vector and sequenced. From the sequence data the ORF was identified. A Nde I site was created at the ATG start codon through PCR mediated site-directed mutagenesis. The full-length ORF containing a Nde 1 site at the start and a BamH I site at the stop was cloned into the pET23a(+) vector just as the ERG6 gene was in Example 4. […] In the case of cycloartenol only one product was formed, which is 24(28)-methylene cycloartanol, i.e., SMTI in FIG. 4. Since a single gene product was able to metabolize both sterol substrates it further confirms the enzymological data in Example 3.

[6] = test system: yeast sterol auxotroph, GL-7; test: Growth support of yeast sterol auxotroph GL-7 cultured with test sterols; type: cell-based; details: sterol added to culture medium
Experimental: The phytosterols identified in Example 1 were tested individually for their ability to support growth. In the absence of a plant sterol mutant for such studies the yeast sterol auxotroph, GL-7, was cultured in the presence of sterols identified according to Example 1, above (Li, 1996). This yeast mutant is used as a model system because it can take up sterols from the culture medium and incorporate the test sterol into the membrane lipid bilayer and proliferate. The amount of proliferation of the cells was measured in the presence and absence of hormonal levels of ergosterol, the major yeast sterol.

[7] = test system: Heliothis zea; test: Sterol utilization and metabolism by Heliothis zea reared on artificial diet with sterol supplement; details: for Utilization by H. zea / support of larval growth and development (words): test sterol as sole added dietary sterol; for Sterol composition (as % total sterol): ts: insect tissues, RP-HPLC and GC-MS
Experimental: Heliothis zea (corn earworm) was reared on an artificial diet treated with different sterol supplements to study the relation between sterol structure and utilization in insects. H. zea eggs were used to establish a disease-free stock colony.
The stock insects were reared using sterile procedures on a pinto bean-based diet. Moths were fed 10% sucrose. Cultures were maintained at 27±1° C., at 40±10% relative humidity on a 14:10 light-dark photoperiod and an artificial diet was used to rear the insects on different sterol supplements. The experimental diet contained agar, which is known to contain trace contamination of cholesterol, otherwise the experimental diet was sterol-free.
Sterols were solubilized in acetone. Aliquots of the solutions were added to the sterol-free diet in a mortar, the material mixed thoroughly with the diet, and the organic solvent allowed to evaporate. Sterols were supplied to the medium at 200 ppm (equivalent to 1 mg of sterol per experimental vessel containing one insect).
By day 20, H. zea larva are in the final stage of larval development (sixth instar), after which the insects may pupate. A single neonate larva was placed in an experimental culture vial and allowed to grow for 20 days. The fresh weight, length and instar stage of 20-day larva were recorded.
In some treatments, the larvae were allowed to grow for another 4 days to determine whether they could pupate properly and develop into moth forms.
These fatty alcohols may comigrate with sterols during some forms of chromatography and interfere with sterol quantitation, particularly of cholesterol. Therefore, in order to confirm the identity and amount of cholesterol in the insect an aliquot of the NSF was injected into a HPLC column and the fraction corresponding to cholesterol was examined by GC-MS.

[8] = test system: SMT; test: Substrate preference of SMT in microsome preparations of P. wickerhamii; type: biochemical, Prototheca wickerhamii
Text: However, the preferred product is not 24(28)-methylene cycloartenol but cyclolaudenol (VII) which is a Δ^25(27)-24-alkyl sterol, a nonutilizable sterol.

[9] = test system: serum and/or plasma total cholesterol and low density lipoprotein (LDL) cholesterol; details: comparison of phytosterol structures; cited from earlier work
[10] = read-out: Ki relative to the first methyl transfer
[11] = Table 11, sterol 200 ppm in diet
[12] = Table 11, sterol 200 ppm in diet, 20-day larvae, relative to growth on cholesterol normalized to 100%
[13] = substrates marked (C1), first methyl transfer

26,27-Cyclopropylidene cycloartenol
pKi [1, 10]: 4.60
Effect on the second methyl transfer ([1]; soluble corn SMT): not affecting the second methyl transfer
Type of inhibition / kinetic pattern ([1]; soluble corn SMT): potent competitive inhibitor
Substrate preference / binding to yeast SMT (words) [2]: failed to bind to the yeast SMT enzyme

C=C(CCC(C)C1CCC2(C)C3CCC4C(C)(C)C(O)CCC45CC35CCC12C)C(C)C (centres unmarked) [24(28)-Methylene cycloartanol]
% Activity, relative to cycloartenol methylation ([3]; (C2), second methyl transfer): 0 (C2) %
pKi [1, 10]: 4.70
Effect on the second methyl transfer ([1]; soluble corn SMT): failed to inhibit the second methyl transfer
Effect on HMGR activity [4]: neither sitosterol nor 24(28)-methylene cycloartanol at 100 mM affected HMGR activity

C=C(CC[C@@H](C)[C@H]1CC[C@H]2C3=CCC4C(C)C(O)CC[C@]4(C)[C@H]3CC[C@]12C)C(C)C (some centres unmarked) [24(28)-Methylenelophenol]
Vmax ([3]; second transmethylation): 1 pmol/min/mg protein
Enzyme Activity ([3]; substrates marked (C2), second methyl transfer): 3,800 dpm/min
% Activity, relative to cycloartenol methylation ([3]; (C2), second methyl transfer): 10 (C2) %
Substrate quality for corn SMT ([3]; soluble enzyme): preferred sterol substrate for the second methylation reaction
Km ([3]; sterol substrate of the second transmethylation, read-out: Km): 11 µM
Transformation by recombinant Arabidopsis SMT [5]: active in transforming both cycloartenol and 24(28)-methylene lophenol to their respective alkyl products

CC(C)CCC[C@@H](C)[C@H]1CC[C@H]2[C@@H]3CC=C4C[C@@H](O)CC[C@]4(C)[C@H]3CC[C@]12C [Cholesterol]
Effect on growth of GL-7 [6]: without affecting the rate of growth of the cells
Dietary concentration that enhanced the rate of development of larvae ([7]; % of diet): ≥ 0.015%
Minimal dietary concentration necessary for larvae to grow and pupate ([7]; % of the experimental diet): 0.01%
Instar reached by day 20 [7, 11]: 6
Growth response [7, 12]: 100%
Growth response ([7]; Table 12, cholesterol / 24,25-dihydrolanosterol mixtures in diet): 100
Instar reached by day 20 ([7]; Table 12, sterol mixtures): 6
Sterol composition (as % total sterol): cholesterol ([7]; Table 12, sterol recovered from insect): (100%)
Utilization by H. zea / support of larval growth and development (words) [7]: supported larval growth to late-sixth instar

CC(C)=CCC[C@@H](C)[C@H]1CC[C@@]2(C)[C@@H]3CC[C@H]4C(C)(C)[C@@H](O)CC[C@@]45C[C@@]35CC[C@]12C [Cycloartenol, cycloartenol]
Vmax ([3]; first transmethylation): 4 pmol/min/mg protein
Substrate quality for corn SMT ([3]; microsome-bound enzyme system): preferred sterol acceptor
Enzyme Activity [3, 13]: 37,515 dpm/min
% Activity, relative to cycloartenol methylation ([3]; (C1), first methyl transfer): 100 (C1) %
Substrate quality for corn SMT ([3]; soluble enzyme): preferred substrate for the first methylation reaction
Transformation by recombinant Arabidopsis SMT [5]: active in transforming both cycloartenol and 24(28)-methylene lophenol to their respective alkyl products
Substrate preference of P. wickerhamii SMT [8]: preferred substrate
Instar reached by day 20 [7, 11]: 3
Growth response [7, 12]: 5%
Utilization by H. zea / support of larval growth and development (words) [7]: inhibit insect growth
Utilization by H. zea / support of larval growth and development (words) ([7]; listed as cycloartenol): could not be met satisfactorily

CC(C)[C@@H](C)/C=C/[C@@H](C)[C@H]1CC[C@H]2C3=CC=C4C[C@@H](O)CC[C@]4(C)[C@H]3CC[C@]12C [Ergosterol]
Effect on growth of GL-7 [6]: sparking growth
Sterol composition (as % total sterol): ts ([7]; Table 11): 36%
Instar reached by day 20 [7, 11]: 3
Growth response [7, 12]: 30%

CCC(CCC(C)C1CCC2C3CC=C4CC(O)CCC4(C)C3CCC12C)C(C)C (centres unmarked) [Sitosterol, sitosterol]
Ki, second methyl transfer [1]: 100 µM
pKi ([1]; read-out: Ki relative to the second methyl transfer): 4.00
Effect on the first methyl transfer ([1]; soluble corn SMT): without affecting the first methyl transfer
Effect on HMGR activity [4]: neither sitosterol nor 24(28)-methylene cycloartanol at 100 mM affected HMGR activity
Effect on growth of GL-7 [6]: without affecting the rate of growth of the cells
Sterol composition (as % total sterol): ts ([7]; Table 11): 20%
Instar reached by day 20 [7, 11]: 6
Growth response [7, 12]: 100%
Utilization by H. zea / support of larval growth and development (words) [7]: supported larval growth to late-sixth instar

CC(C)=CCC[C@@H](C)[C@H]1CC[C@H]2C3=C(CC[C@]12C)[C@@]1(C)CC[C@H](O)C[C@@H]1CC3 [Zymosterol]
Enzyme Activity [3, 13]: 5,252 dpm/min
% Activity, relative to cycloartenol methylation ([3]; (C1), first methyl transfer): 14 (C1) %
Substrate quality for corn SMT ([3]; soluble enzyme): poor sterol substrate of the first methylation reaction
Substrate preference / binding to yeast SMT (words) [2]: preferred sterol substrate of yeast SMT enzyme
Substrate preference / binding to yeast SMT (words) ([2]; listed as zymosterol): preferred substrate of the yeast SMT

CC[C@H](CC[C@@H](C)[C@H]1CC[C@H]2[C@@H]3CC[C@H]4C[C@@H](O)CC[C@]4(C)[C@H]3CC[C@]12C)C(C)C [sitostanol]
Reduction of cholesterol levels [9]: more efficient compared to unsaturated compounds such as sitosterol in reducing cholesterol levels
